Assay results taken from US8461206B2, “Use of at least one (dihydro)jasmonic acid derivative for treating dry skin” (L'Oreal, priority 2003, dated 2013).

How the values were obtained:
Assay type in all cases: cell-based
[1] = system: immortalized human sebocytes derived from the SZ95 line; assay: cell proliferation (MUH) assay; conditions: in parallel to the lipogenesis test
[2] = system: immortalized human sebocytes derived from the SZ95 line; assay: cell viability (LDH) assay; conditions: in parallel to the lipogenesis test
[3] = system: immortalized human sebocytes derived from the SZ95 line; assay: lipogenesis in immortalized human sebocytes in culture (Nile Red fluorescence); conditions: 10^-4 M, 0.1% DMSO, treatment for 48 hours, Nile Red 1 μg/ml, cells at confluence, p<0.001
Description: Methyl dihydrojasmonate (provided by BEDOUKIAN) was tested on a model of immortalized human sebocytes in culture, derived from the SZ95 line described in Zouboulis, C. C., Seltmann, H., Neitzel, H. & Orfanos, C. E., Establishment and Characterization of an Immortalized Human Sebaceous Gland Cell Line, J. Invest. Dermatol., 113, 1011-1020 (1999).
The test consisted in measuring the amount of lipids produced by the sebocytes of the line (at confluence), in the presence or absence of active agent diluted in DMSO, such that the final amount of DMSO in the culture medium was 0.1% and the amount of methyl dihydrojasmonate was 10^−4 M. After treatment for 48 hours, the adherent cells were treated with Nile Red (1 μg/ml). The lipid content was then quantified by measuring the fluorescence of the dye (two excitation/emission couples: 485-540 nm for the neutral lipids and 540-620 nm for the normeutral lipids). The results were given for the total lipids (combination of the two measurements).
The experiment was carried out in sextuplicate (assayed products and control) in a 96-well plate, and repeated four times.

For `CCCCCC1C(=O)CCC1CC(=O)OC` (stereo not drawn) [methyl dihydrojasmonate], the “modification of cell proliferation (MUH)” value [1] was “not related to a modification”, the “modification of cell viability (LDH)” value [2] was “not related to a modification” and the “increase in amount of neutral lipids synthesized by the sebocytes compared to the untreated control” value [3] was 98%.
